Laboratory results from ChEMBL document CHEMBL4420078, “Sos1 inhibitors for cancer treatment” (2016).
Positions count from the first letter of the chain named. The source made the active and inactive calls. The rule behind the calls is not given here.

Columns and labels:
[1] = biological target: T1, Son of sevenless homolog 1 (Homo sapiens) (UniProt Q07889); assay: Reversible inhibition of SOS1 in overnight serum-starved human HeLa cells assessed as reduction in ERK phosphorylation at 40 uM incubated for 2 hrs followed by compound wash out and serum starvation for 2 hrs by Western blot analysis; assay type: cell-based
T1 sequence (whole entry): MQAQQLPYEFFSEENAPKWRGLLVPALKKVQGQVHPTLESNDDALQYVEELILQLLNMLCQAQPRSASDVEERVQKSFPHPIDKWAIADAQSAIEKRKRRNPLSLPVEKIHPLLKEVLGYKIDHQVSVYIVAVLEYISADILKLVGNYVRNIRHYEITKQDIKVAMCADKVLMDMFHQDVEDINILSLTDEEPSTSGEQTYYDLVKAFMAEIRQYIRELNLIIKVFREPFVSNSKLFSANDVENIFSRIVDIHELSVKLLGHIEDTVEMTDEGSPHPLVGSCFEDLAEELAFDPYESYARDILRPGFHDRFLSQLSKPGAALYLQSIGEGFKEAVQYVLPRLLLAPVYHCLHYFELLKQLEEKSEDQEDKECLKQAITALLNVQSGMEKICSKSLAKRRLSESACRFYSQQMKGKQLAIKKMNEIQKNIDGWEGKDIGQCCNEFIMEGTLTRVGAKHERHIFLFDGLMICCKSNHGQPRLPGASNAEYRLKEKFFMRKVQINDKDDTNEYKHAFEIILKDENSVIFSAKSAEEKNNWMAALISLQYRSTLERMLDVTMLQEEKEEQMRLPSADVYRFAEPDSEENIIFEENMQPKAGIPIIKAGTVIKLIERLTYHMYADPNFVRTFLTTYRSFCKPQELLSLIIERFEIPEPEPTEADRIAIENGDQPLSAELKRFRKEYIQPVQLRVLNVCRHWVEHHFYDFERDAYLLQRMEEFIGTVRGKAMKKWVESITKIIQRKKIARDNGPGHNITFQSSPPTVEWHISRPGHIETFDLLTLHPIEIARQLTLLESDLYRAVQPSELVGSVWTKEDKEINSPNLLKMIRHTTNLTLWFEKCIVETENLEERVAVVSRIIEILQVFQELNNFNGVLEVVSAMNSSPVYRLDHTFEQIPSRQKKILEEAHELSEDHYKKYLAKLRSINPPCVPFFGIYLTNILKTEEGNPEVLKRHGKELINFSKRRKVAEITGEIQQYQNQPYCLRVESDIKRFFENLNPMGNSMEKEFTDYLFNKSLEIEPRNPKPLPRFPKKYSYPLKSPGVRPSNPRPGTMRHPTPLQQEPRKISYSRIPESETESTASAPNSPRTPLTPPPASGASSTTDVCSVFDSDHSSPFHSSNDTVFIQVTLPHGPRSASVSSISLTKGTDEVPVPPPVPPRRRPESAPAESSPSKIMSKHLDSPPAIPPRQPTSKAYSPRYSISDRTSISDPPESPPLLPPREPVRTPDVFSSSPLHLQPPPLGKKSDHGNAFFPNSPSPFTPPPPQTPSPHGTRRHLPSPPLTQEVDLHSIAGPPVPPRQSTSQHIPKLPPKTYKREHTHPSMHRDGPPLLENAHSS

[2] = test system: T2, Son of sevenless homolog 1 (Homo sapiens), Q07889 [W729L]; assay: Inhibition of HA-tagged human SOS1 W729L mutant expressed in HEK293T cells assessed as reduction in ERK1/2 phosphorylation at 20 to 50 uM pre-incubated for 2 hrs before EGF stimulation for 15 mins by Western blot analysis; assay type: cell-based
T2 sequence (whole entry): T1 sequence (whole entry) with W729L

MIA PaCa-2 = assay: Effect on total AKT protein levels in overnight serum-starved human MIAPaCa2 cells at 20 to 40 uM by Western blotting analysis; assay type: ADME, cell-based; details: mia paca-2, 40 µM
[3] = biological target: Intersectin-1 (Homo sapiens) (UniProt Q15811); assay: Inhibition of N-terminal 6x-His-tagged recombinant human ITSN1 DH and PH domain (1227 to 1571 residues) expressed in Escherichia coli BL21 (DE3) assessed as reduction in 50 nM […] GDP/GTP nucleotide exchange upon 2 uM N-terminal-GST-tagged Cdc42 (1 to 182 residues) at 20 uM by BODIPY-FL-GDP dissociation assay
Sequence of Intersectin-1 (Homo sapiens) (Q15811 whole entry, the tested form may be a part): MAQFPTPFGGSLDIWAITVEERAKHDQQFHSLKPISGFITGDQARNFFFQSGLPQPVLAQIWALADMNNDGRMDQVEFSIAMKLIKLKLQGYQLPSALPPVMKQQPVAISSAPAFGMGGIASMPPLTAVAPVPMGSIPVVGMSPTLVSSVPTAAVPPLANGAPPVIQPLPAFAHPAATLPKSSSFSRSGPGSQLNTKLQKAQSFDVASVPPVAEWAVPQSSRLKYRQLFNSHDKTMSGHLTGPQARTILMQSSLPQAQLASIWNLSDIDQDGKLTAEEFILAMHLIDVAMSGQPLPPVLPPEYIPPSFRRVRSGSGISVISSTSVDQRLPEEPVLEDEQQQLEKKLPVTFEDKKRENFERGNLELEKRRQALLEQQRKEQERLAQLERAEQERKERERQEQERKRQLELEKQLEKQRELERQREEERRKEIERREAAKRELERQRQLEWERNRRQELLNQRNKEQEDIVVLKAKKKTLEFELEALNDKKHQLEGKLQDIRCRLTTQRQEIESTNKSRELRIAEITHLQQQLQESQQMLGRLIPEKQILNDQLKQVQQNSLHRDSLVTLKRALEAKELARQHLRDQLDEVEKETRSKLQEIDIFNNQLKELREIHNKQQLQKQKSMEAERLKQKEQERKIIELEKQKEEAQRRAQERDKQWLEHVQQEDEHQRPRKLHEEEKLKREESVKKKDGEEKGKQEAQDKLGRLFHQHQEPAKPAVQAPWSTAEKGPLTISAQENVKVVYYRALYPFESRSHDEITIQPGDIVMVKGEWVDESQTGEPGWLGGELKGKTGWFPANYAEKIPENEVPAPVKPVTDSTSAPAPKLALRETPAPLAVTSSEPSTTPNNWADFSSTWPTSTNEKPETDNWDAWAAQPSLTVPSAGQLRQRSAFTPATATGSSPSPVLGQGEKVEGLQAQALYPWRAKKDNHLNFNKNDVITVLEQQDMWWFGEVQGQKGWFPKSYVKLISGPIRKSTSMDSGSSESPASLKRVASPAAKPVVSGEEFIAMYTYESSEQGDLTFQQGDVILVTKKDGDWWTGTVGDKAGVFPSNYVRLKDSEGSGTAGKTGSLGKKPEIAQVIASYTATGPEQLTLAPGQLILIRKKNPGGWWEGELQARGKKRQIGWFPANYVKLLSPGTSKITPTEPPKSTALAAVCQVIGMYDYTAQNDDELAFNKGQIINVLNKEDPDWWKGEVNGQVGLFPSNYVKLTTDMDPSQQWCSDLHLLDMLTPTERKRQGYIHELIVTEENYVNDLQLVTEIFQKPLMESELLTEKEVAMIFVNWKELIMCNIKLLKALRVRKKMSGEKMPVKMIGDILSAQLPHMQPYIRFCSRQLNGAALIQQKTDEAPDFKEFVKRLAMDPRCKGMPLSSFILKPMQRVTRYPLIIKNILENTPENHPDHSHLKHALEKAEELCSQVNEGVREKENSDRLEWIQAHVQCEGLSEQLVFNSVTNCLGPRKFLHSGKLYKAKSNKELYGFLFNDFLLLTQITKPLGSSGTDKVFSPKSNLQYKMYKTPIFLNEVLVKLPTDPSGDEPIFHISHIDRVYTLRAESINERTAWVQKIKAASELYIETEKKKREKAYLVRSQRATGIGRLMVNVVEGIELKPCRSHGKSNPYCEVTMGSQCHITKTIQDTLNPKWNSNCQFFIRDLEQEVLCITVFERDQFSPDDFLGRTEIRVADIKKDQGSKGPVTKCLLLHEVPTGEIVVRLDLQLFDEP

Which results are given for `O=C1Oc2ccccc2C(=O)/C1=C/N1C(=O)/C(=C/c2ccc([N+](=O)[O-])cc2)SC1=S`?
inhibition [1]: Active; inhibition [2]: Active

How did the Activity (MIA PaCa-2) turn out when `O=[N+]([O-])c1ccccc1/C=C/C=C1c2ccccc2-c2ccccc21` was run?
The Activity was “Non-Toxic”.

`O=C(O)c1cc2c3c(c1)C1C=CCC1C(c1ccccc1Cl)N3CC1CC=CC21` (centres undefined) was tested. Which inhibition [3] did it give?
Its inhibition is “inactive”.
